Article PMC3857224, “Inhibition of DNA Glycosylases via Small Molecule Purine Analogs” (PLoS ONE, 2013)

Assays:
Neil1-KO MEFs = assay: cell survival assay (CellTiter Glo), Neil1-KO MEFs; type: cell-based, mouse; settings: Neil1 knockout MEFs, 72 h exposure
Description: (§1) Wild-type or Neil1-KO MEFs were plated in a 96-well opaque walled dish (2000 cells/well) and incubated for 18 h to allow for attachment. Inhibitor (80 µL) diluted in DMEM was added to the cells at various concentrations ranging from 0–20 µM, and incubated for an additional 72 h. Cell viability was measured using the CellTiter Glo reagent (Promega, Madison, WI) and was prepared as per the manufacturer's instructions, with 50 µL of the reconstituted reagent added to each well. Cells were incubated for 10 min on an orbital shaker to induce cell lysis. Survival was measured by luminescence on a microplate reader (TECAN) and normalized to no-treatment control.
(§2) To experimentally address this question, mouse embryo fibroblasts from wild-type and Neil1 knockout mice were treated with increasing concentrations of P2, P6, P7, and P8. Cell survival was measured after a 72 h exposure. For all four compounds, the 37% survival was greater in the Neil1 knockout cells relative to the wild-type. The D37 ratios for WT: Neil1 were as follows: P2: 6∶10 µM; P6: 5∶8 µM; P7: 12∶15 µM; and P8: 7∶11 µM, respectively. […] In addition to modulating BER, there are potentially many other candidate enzymes that may be compromised by the introduction of these compounds, including but not limited to kinases, DNA and RNA polymerases, other DNA repair complexes or helicases. However, given that the concentrations of these compounds are several orders of magnitude higher than what would be considered as a pharmacologically-relevant dose, detailed mechanistic analyses of the current set of compounds is highly premature. Such studies and the development of appropriate cell culture and animal models will need to be generated concomitantly with the evolution of higher affinity, greater specificity molecules.

NEIL1 = biological target: T1, NEIL1 (Homo sapiens, UniProt Q96FI4); assay: qHTS fluorogenic glycosylase/AP lyase assay, 1536-well, Sp/Gh substrate; type: biochemical; settings: 5 concentrations
T1 construct: made in house
Description: The fluorogenic assay was miniaturized to 4 µL in 1536-well black solid plates by optimization of the enzyme and Sp/Gh substrate concentrations. Briefly, 3 µL of 25 nM NEIL1 were dispensed into each well of a 1536-well plate (except buffer in columns 3 and 4 as a negative control). Compounds (DMSO solutions) and control (DMSO only) (23 nL) were transferred to the plate via Kalypsys pintool. The plate was incubated for 15 min at room temperature, and then 1 µL of the Sp/Gh-containing DNA substrate (75 nM final concentration) was added to start the reaction. The plate was immediately transferred into the ViewLux reader for the kinetic fluorescence read. Initial rate data were normalized against uninhibited and no-enzyme controls and the resulting percent activities as a function of compound concentration were fitted using the Hill equation.
Having established the general principle for a glycosylase screening assay, further assay development was undertaken to enable HTS in which the reaction volumes were reduced by 5-fold to a total of 4 µL. Initially, the library of pharmacologically active compounds (LOPAC^1280) was screened for inhibitors of NEIL1 as a determination of the feasibility of this high-throughput method. […] All compounds were screened at 5 different concentrations that allowed for the initial estimation of inhibitory potency (IC50) values, as well as an evaluation of the shape of the response curves. In addition to the anticipated inhibitors (known DNA intercalators, such as ellipticine (IC50 = 2 µM)) and other small molecules that have been previously established to be promiscuous inhibitors (such as aurintricarboxylic acid (IC50<1 µM)), one interesting hit from this screen was CGP-74514A (NCGC ID is NCGC00015229) (Figure 5A). CGP-74514A is a known small molecule inhibitor of Cdk1 in which the structure of this molecule is based on a purine ring backbone.

[1] = biological target: T2, T4 pyrimidine dimer DNA glycosylase (T4-pdg) (Enterobacteria phage T4, UniProt P04418); assay: UV-irradiated plasmid nicking assay; type: biochemical; settings: 40 µM inhibitor, 15 min; read-out: inhibition of T4-pdg activity (reduction in nicks per plasmid)
T2 construct: made in house
Description: T4-pdg activity was assayed by a plasmid nicking assay with minor modifications of a previously described method, [27]. Supercoiled pBR322 plasmid was irradiated with 254 nm ultraviolet (UV) light (100 µW/cm^2) for 98 sec to produce approximately 10 thymine dimers per plasmid molecule. Irradiated plasmid (10 nM) was then incubated in the presence or absence of inhibitors with 130 pM active T4-pdg, as assessed by […] trapping. Reactions were started by addition of DNA, incubated for 15 min at 37°C in reaction buffer (10 mM Tris pH 8.0, 1 mM EDTA, 125 mM NaCl, 100 µg/ml BSA), and stopped by the addition of SDS to a final concentration of 1%. Plasmid DNAs (form I, II and III corresponding to supercoiled, nicked circular and linear, respectively) were resolved on a 0.9% agarose gel and visualized with 0.5 µg/ml ethidium bromide. Gel images were captured on a ChemiImager 5500 (Alpha Innotech, Santa Clara, CA) gel documentation system and densitometry was performed using Image J software. Percent remaining form I DNA was calculated by applying a factor of 1.42 to the form I band intensity and then dividing form I by the sum of form I, II and III. The number of nicks per molecule were estimated based on a Poisson distribution, in which nicks per molecule = -ln (mass fraction of form I DNA remaining), and inhibition of activity was measured as the percentage reduction in the number of nicks per plasmid molecule compared to reactions without inhibitor.
In humans, several glycosylases, including OGG1, NTH1, NEIL2, and NEIL3 may participate in the removal of a wide variety of oxidized bases. […] To address this question, assays were designed to measure inhibition of OGG1 and NTH1, as well as the Escherichia coli glycosylase-AP lyase, FPG. In order to compare the relative efficiencies of inhibition between NEIL1 and these other glycosylase/AP lyases, it was necessary to identify common DNA substrates and pair-wise analyze inhibition data. To compare inhibition of NEIL1 versus NTH1, oligodeoxynucleotides were synthesized that contained a site-specific thymine glycol (TG) adduct, while comparative inhibition data for OGG1 and FPG were collected using an oligodeoxynucleotide containing a site-specific 8-oxo-Gua. In control reactions (no inhibitor added), each enzyme generated the expected incised products, confirming the validity of the assay. […] Additionally, experiments were designed to test whether compounds P2, P6, P7, and P8 could inhibit a pyrimidine dimer-specific glycosylase/AP lyase, T4 pyrimidine dimer DNA glycosylase (T4-pdg) that also has an associated AP lyase activity, using an UV-irradiated plasmid nicking assay. […]

wild-type MEFs = assay: cell survival assay (CellTiter Glo), wild-type MEFs; type: cell-based, mouse; settings: WT MEFs, 72 h exposure
Description: as §1, §2

T1 sequence (Q96FI4 whole entry): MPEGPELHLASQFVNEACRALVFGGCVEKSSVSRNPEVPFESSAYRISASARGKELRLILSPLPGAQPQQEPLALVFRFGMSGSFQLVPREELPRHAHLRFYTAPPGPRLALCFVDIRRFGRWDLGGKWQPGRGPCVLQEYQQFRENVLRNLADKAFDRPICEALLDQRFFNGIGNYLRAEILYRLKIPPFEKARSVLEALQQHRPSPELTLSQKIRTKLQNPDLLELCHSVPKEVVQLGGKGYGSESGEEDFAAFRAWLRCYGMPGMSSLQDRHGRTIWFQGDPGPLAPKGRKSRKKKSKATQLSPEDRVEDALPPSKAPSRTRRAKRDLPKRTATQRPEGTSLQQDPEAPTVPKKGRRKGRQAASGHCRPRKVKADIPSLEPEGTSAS
T2 sequence (P04418 whole entry): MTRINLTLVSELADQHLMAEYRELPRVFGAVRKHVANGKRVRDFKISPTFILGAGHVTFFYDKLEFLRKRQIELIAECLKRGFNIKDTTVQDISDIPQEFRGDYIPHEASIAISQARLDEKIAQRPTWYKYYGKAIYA

Structure (SMILES)	D37 (37% survival) (Neil1-KO MEFs)	IC50 (NEIL1)	inhibition at 40 µM [1]	D37 (37% survival) (wild-type MEFs)
Cc1cc(/C=C/C#N)cc(C)c1Nc1nc(Nc2ccc3c(c2)OCO3)c2nc[nH]c2n1 [Purine P8]	11 µM	10 µM	14%	7 µM
Cc1cc(/C=C/C#N)cc(C)c1Nc1nc(Nc2ccc3scnc3c2)c2nc[nH]c2n1 [Purine P2]	10 µM	4 µM	< 1%	6 µM
Cc1nc2ccc(Nc3nc(Nc4c(C)cc(/C=C/C#N)cc4C)nc4[nH]cnc34)cc2s1 [Purine P6]	8 µM	7.9 µM	32%	5 µM
Cc1cc(/C=C/C#N)cc(C)c1Nc1nc(Nc2ccc3c(c2)CCC3)c2nc[nH]c2n1 [Purine P7]	15 µM	8.9 µM	13%	12 µM
